Results reported in patent publication US20030162662A1, “2-Phenyl-2h-pyridazine-3-ones” (priority 2000, published 2003).

How the values were obtained:
BIDPI (common blackjack) = test: Greenhouse herbicidal action, postemergence treatment, BIDPI; type: in vivo
Excerpt: (§1) The herbicidal action of the 2-phenylpyridazin-3-one compounds of the formula I could be shown by means of greenhouse experiments: […]
(§2) The cultivation containers used were plastic pots containing loamy sand with approximately 3.0% of humus as a substrate. The seeds of the test plants were sown separately according to species.
(§3) For the purpose of postemergence treatment, the test plants were first raised up to a growth height of 3 to 15 cm, depending on growth form, and then treated with the active compounds suspended or emulsified in water. For this, the test plants were either sown directly and raised in the same containers or they were first raised separately as seedlings and transplanted into the experimental containers a few days before the treatment. The application rate for the postemergence treatment was 31.2 or 15.6 g of a.S./ha.
(§4) The plants were kept species-specifically at temperatures from 10-25° C. or 20-35° C. The experimental period extended over 2 to 4 weeks. During this time, the plants were tended, and their reaction to the individual treatments was assessed.
(§5) Assessment was carried out on a scale from 0 to 100. 100 here means no emergence of the plants or complete destruction of at least the above-ground parts and 0 means no damage or normal course of growth.
(§6) The plants used in the greenhouse experiments were made up of the following species: […]

SETFA (Faber's foxtail) = test: Greenhouse herbicidal action, postemergence treatment, SETFA; type: in vivo
Excerpt: as §1, §2, §3, §4, §5, §6

Row | melting point [°C] | SMILES | herbicidal action against BIDPI (scale 0 to 100; 100 = complete destruction, 0 = no damage) (BIDPI (common blackjack); application rate 15.6 g/ha) [%] | herbicidal action against BIDPI (scale 0 to 100; 100 = complete destruction, 0 = no damage) (BIDPI (common blackjack); application rate 31.2 g/ha) [%] | herbicidal action against SETFA (scale 0 to 100; 100 = complete destruction, 0 = no damage) (SETFA (Faber's foxtail); application rate 15.6 g/ha) [%] | herbicidal action against SETFA (scale 0 to 100; 100 = complete destruction, 0 = no damage) (SETFA (Faber's foxtail); application rate 31.2 g/ha) [%]
1 | – | CCOC(=O)C=Cc1cc(-n2ncc(C(F)(F)F)c(C)c2=O)c(F)cc1Cl [Example I-658 of WO 97/07104, reference compound] | 30 | 30 | 80 | –
2 | – | CCOC(=O)C(Cl)=Cc1cc(-n2ncc(C(F)(F)F)c(C)c2=O)c(F)cc1Cl [Ia.3, 2-[4-Chloro-2-fluoro-5-(2-ethoxycarbonyl-2-chloroethen-1-yl)-phenyl]-4-methyl-5-trifluoromethyl-2H-pyridazin-3-one] | 80 | 100 | 100 | 100
3 | 121 to 123 | COC(=O)/C(Cl)=C/c1cc(-n2ncc(C(F)(F)F)c(C)c2=O)c(F)cc1Cl [Ib.2] | – | – | – | –
4 | 128 to 129 | Cc1c(C(F)(F)F)cnn(-c2cc(/C=C(\Cl)C(N)=O)c(Cl)cc2F)c1=O [Ib.30] | – | – | – | –
